As usually defined, the pIC50 is the IC50 on a negative log10 scale, so that one unit is a factor of ten. Read a high pIC50 as a low IC50.

pIC50: −log10 of the molar value. Some results are limits rather than exact numbers.

The test concerns the target T1, Human ATX protein (Homo sapiens, UniProt Q13822).
T1 construct: made in house
As to the kind of experiment: Autotaxin (ATX) assay, FRET with FS-3 substrate. Particulars: upper bound bins (no greater than 100, 250 or 500 nM); FS-3 2 μM, ATX 1.0 μg/mL. The class given is biochemical. A digest of the protocol:
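Hydrolysis of the FRET substrate FS-3 (2 μM final) unquenches fluorescein, read at excitation 485 nm and emission 538 nm after 2 h at room temperature, protected from light. Purified human ATX (1.0 μg/mL) and compound were first incubated for 30 min in pH 7.4 Tris/salt buffer containing 1 mg/mL fatty acid-free BSA.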

For `CN1CCN(C(=O)c2cc3n(n2)CCCN(C(=O)OCc2cc(C(F)(F)F)cc(C(F)(F)F)c2)C3)CC1` [Example 215], the pIC50 is no less than 7.00.

Compound `O=C(OCc1cc(Cl)cc(C(F)(F)F)c1)N1CCCn2nc(C(=O)N3CC4CNC(C4)C3)cc2C1` (stereo not drawn) [Example 188] had a pIC50 of no less than 7.00. To `O=C(O)C1CC2CCC(C1)N2C(=O)c1cc2n(n1)CCCN(C(=O)OCc1cc(Cl)cc(Cl)c1)C2` (stereo not drawn) [Example 97, 8-(5-(((3,5-Dichlorobenzyl)oxy)carbonyl)-5,6,7,8-tetrahydro-4H-pyrazolo[1,5-a][1,4]diazepine-2-carbonyl)-8-azabicyclo[3.2.1]octane-3-carboxylic acid] belongs no less than 7.00; to `O=C(OCc1cc(Cl)cc(Cl)c1)N1CCCn2nc(C(=O)N3CCCCC3)cc2C1` [Example 19, 3,5-Dichlorobenzyl 2-(piperidine-1-carbonyl)-7,8-dihydro-4H-pyrazolo[1,5-a][1,4]diazepine-5(6H)-carboxylate], no less than 7.00. With `CCOC(=O)c1nn2c(c1Cl)CN(C(=O)OCc1cc(C(F)(F)F)cc(C(F)(F)F)c1)CCC2` [Example 108, 5-(3,5-Bis(trifluoromethyl)benzyl) 2-ethyl 3-chloro-7,8-dihydro-4H-pyrazolo[1,5-a][1.4]diazepine-2,5(6H)-dicarboxylate] the figure was no less than 7.00. With `CN1CCN(c2cc3n(n2)CCCN(C(=O)OCc2cc(C(F)(F)F)cc(C(F)(F)F)c2)C3)CC12CC2` [Example 353] the figure was no less than 7.00; with `CC(C)(C)OC(=O)N1CCN(C(=O)c2cc3n(n2)CCN(C(=O)OCc2cc(C(F)(F)F)cc(C(F)(F)F)c2)C3)CC1(C)C` [Example 466], no less than 7.00; with `Cc1nc(-c2cc3n(n2)CCCN(C(=O)OCc2cc(C(F)(F)F)cc(C(F)(F)F)c2)C3)no1` [Example 392, 3,5-bis(Trifluoromethyl)benzyl 2-(5-methyl-1,2,4-oxadiazol-3-yl)-7,8-dihydro-4H-pyrazolo[1,5-a][1,4]diazepine-5(6H)-carboxylate], no less than 7.00. The compound `O=C(O)Cn1cc(-c2cc3n(n2)CCCN(C(=O)OCc2cc(C(F)(F)F)cc(C(F)(F)F)c2)C3)cn1` [Example 412] had a pIC50 of no less than 7.00. To `CNC(=O)c1cc2n(n1)CCCN(C(=O)OCc1cc(Cl)cc(Cl)c1)C2` [Example 27, 3,5-Dichlorobenzyl 2-(methylcarbamoyl)-7,8-dihydro-4H-pyrazolo[1,5-a][1,4]diazepine-5(6H)-carboxylate] belongs no less than 7.00; to `CN1CC2CCC1CN2C(=O)c1cc2n(n1)CCCN(C(=O)OCc1cc(Cl)cc(C(F)(F)F)c1)C2` (stereo not drawn) [Example 159, 3-chloro-5-(trifluoromethyl)benzyl 2-(5-methyl-2,5-diazabicyclo[2.2.2]octane-2-carbonyl)-7,8-dihydro-4H-pyrazolo[1,5-a][1,4]diazepine-5(6H)-carboxylate], no less than 7.00. With `O=C(O)C1CN(C(=O)c2cc3n(n2)CCCN(C(=O)OCc2cc(C(F)(F)F)cc(C(F)(F)F)c2)C3)CCN1` (stereo not drawn) [Example 192] the figure was no less than 7.00. To `Cc1cc(-c2cc3n(n2)CCCN(C(=O)OCc2cc(Cl)cc(C(F)(F)F)c2)C3)ccn1` [Example 370] belongs no less than 7.00; to `O=C(O)c1cc2n(n1)CCCN(C(=O)OCc1cc(F)cc(C(F)(F)F)c1)C2` [Example 64, 5-(((3-Fluoro-5-(trifluoromethyl)benzyl)oxy)carbonyl)-5,6,7,8-tetrahydro-4H-pyrazolo[1,5-a][1,4]diazepine-2-carboxylic acid], no less than 7.00.

In turn, `O=C(O)C1CC2CCCC(C1)N2C(=O)c1cc2n(n1)CCN(C(=O)OCc1cccc(C(F)(F)F)c1)C2` (stereo not drawn) [Example 43, 9-(5-(((3-(Trifluoromethyl)benzyl)oxy)carbonyl)-4,5,6,7-tetrahydropyrazolo[1,5-a]pyrazine-2-carbonyl)-9-azabicyclo[3.3.1]nonane-3-carboxylic acid] showed a pIC50 of no less than 7.00.

For the origin of these results see US20160039825A1 (BIOGEN MA INC., priority 2013, published 2016).
